Where “and” joins values, the source holds several entries; their conditions need not be identical. Identical values can stand only once. Like-named read-outs stand apart in the source and are kept apart here.
Target: CYP2C9 (Homo sapiens, UniProt P11712)
Assay: CYP2C9 inhibition, tolbutamide methylhydroxylase assay in human liver microsomes
Type: in vitro ADME
Parameters: from tissue; host or cells: in vivo, 14 healthy male subjects
Conditions: for IC50: estimated
Protocol: Inhibition of the biotransformation of CYP‐specific substrates by GLPG1205 was studied using human liver microsomes. Incubation was performed at 37°C with the following conditions: n = 3 for all assays; 0.1 M phosphate buffer (pH 7.4), the cofactor nicotinamide adenine dinucleotide phosphate (NADPH) incubated at 2 mM, the CYP‐specific substrate incubated at 1 nonsaturating concentration, and GLPG1205. Additional incubation was performed with (1) a 30‐minute preincubation step of GLPG1205 with microsomes before the addition of the cofactor NADPH and CYP substrate; and (2) a 30‐minute preincubation step of GLPG1205 with microsomes and the cofactor NADPH, before the addition of the CYP substrate. […] The CYP‐specific substrates were incubated per the above conditions at the following concentrations: tolbutamide, 200 μM, CYP2C9 substrate; S‐mephenytoin, 60 μM, CYP2C19 substrate; phenacetin, 40 μM, CYP1A2 substrate.
Further details of the assays used for each CYP substrate are reported in the Supplemental Methods. Metabolites of the CYP‐specific substrates (acetaminophen for CYP1A2, hydroxytolbutamide for CYP2C9, hydroxymephenytoin for CYP2C19) were quantified using LC‐MS/MS.
Enzymatic activity in the presence of GLPG1205 was expressed as a percentage of the control activity obtained with the vehicle only (ie, without GLPG1205 or reference inhibitor). Decreases in activity of less than 20% were not considered clinically relevant.
Protocol for CYP Inhibition of the biotransformation of CYP-specific substrates by GLPG1205 was studied using human liver microsomes.^7 Incubations were performed at 37°C with the following conditions: n = 3 for all assays; 0.1 M phosphate buffer pH 7.4; the cofactor β-nicotinamide adenine dinucleotide phosphate (NADPH) incubated at 2 mM; the CYP-specific substrate incubated at one non-saturating concentration; and GLPG1205. Additional incubations were performed with: 1) a 30-minute preincubation step of GLPG1205 with microsomes before addition of the cofactor NADPH and CYP substrate; and 2) a 30-minute preincubation step of GLPG1205 with microsomes and the cofactor NADPH, before addition of the CYP substrate.
The CYP-specific substrates were incubated at the following conditions: tolbutamide (200 µM; CYP2C9); S-mephenytoin (60 µM; CYP2C19); phenacetin (40 µM; CYP1A2).^8-10 Reference inhibitors (as detailed in the previous section) were incubated in parallel. […]
A 2-fold dilution in D9-OH-tolbutamide at 1 µM in water with 0.1% formic acid was applied to the supernatants and then analysis was performed by LC-MS/MS with chromatographic separation. […] The quantification of the metabolite, hydroxytolbutamide, was performed in MRM mode using the 287.1 to 89.2 transition. […]

Sequence of CYP2C9 (P11712 whole entry): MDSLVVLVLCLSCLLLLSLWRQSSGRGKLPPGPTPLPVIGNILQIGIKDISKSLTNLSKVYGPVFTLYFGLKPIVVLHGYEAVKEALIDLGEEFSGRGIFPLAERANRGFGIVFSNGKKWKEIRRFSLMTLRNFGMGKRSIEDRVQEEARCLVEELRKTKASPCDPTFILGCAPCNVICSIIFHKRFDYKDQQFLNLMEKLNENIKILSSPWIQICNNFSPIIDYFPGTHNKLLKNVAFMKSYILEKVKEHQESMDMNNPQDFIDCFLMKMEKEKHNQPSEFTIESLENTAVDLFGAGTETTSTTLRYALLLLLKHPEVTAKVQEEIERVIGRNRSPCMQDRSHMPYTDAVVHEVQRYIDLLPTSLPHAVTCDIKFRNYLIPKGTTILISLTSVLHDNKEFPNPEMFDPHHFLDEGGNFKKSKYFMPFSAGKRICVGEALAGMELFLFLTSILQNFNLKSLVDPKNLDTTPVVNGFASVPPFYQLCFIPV

O=c1nc(OC[C@@H]2COCCO2)cc2n1CCc1cc(C#CC3CC3)ccc1-2 [GLPG1205, 9‐cyclopropylethynyl‐2‐[(S)‐1‐(1,4)dioxan‐2‐ylmethoxy]‐6,7‐dihydropyrimido[6,1‐a]isoquinolin‐4‐one]
inhibition of CYP2C9 in words (GLPG1205 50‐100 μM): moderate and reversible
IC50 (human liver microsomes, read-out: IC50 for inhibition of CYP2C9): ~50 µM and ≥ 50 µM
IC50 (equivalent of ≥50 μM, read-out: IC50 for inhibition of CYP2C9, equivalent): ≥ 49.9 µM
inhibition at 20 min (human, liver microsomes, pH 7.4, probe tolbutamide 200 µM, GLPG1205 50‐100 μM without preincubation, tolbutamide 200 μM): 49 to 56.9%

From PMC8453848, “Effect of GLPG1205, a GPR84 Modulator, on CYP2C9, CYP2C19, and CYP1A2 Enzymes: In Vitro and Phase 1 Studies” (Clinical Pharmacology in Drug Development, 2021)
